Experimental data as given in patent publication US8759535B2, “Substituted fused imidazole derivatives, pharmaceutical compositions, and methods of use thereof” (High Point Pharmaceuticals, LLC, priority 2010, dated 2014).
Where a name gives a salt, the structure may show the parent alone.

System: HMOX1
Assay: HMOX1 Protein Assay (immunostaining of HO-1 in NHLF cells, GE InCell 1000)
Assay type: cell-based
Conditions: Homo sapiens, fold change above DMSO treated cells, 16 h; for fold induction at 5 µM: 5 μM compound; for fold induction at 3 µM: 3 μM compound (asterisk)
Summary of the method: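 NHLF cells seeded overnight in FGM-2, then exposed to compound or DMSO vehicle for 16 h, fixed, and immunostained for HO-1 with Hoechst nuclear counterstain; imaged on InCell 1000. Values are fold change over DMSO-treated cells, generally at 5 μM (0.8% DMSO), with asterisked entries at 3 μM.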

SMILES | fold induction at 5 µM | fold induction at 3 µM
Cn1c(Nc2nc3ccc(Cl)cc3s2)nc2cc(C(=O)NCC(=O)N3CCS(=O)(=O)CC3)ccc21 [Example 424, 2-(6-Chloro-benzothiazol-2-ylamino)-1-methyl-1H-benzoimidazole-5-carboxylic acid [2-(1,1-dioxo-thiomorpholin-4-yl)-2-oxo-ethyl]-amide] | 24.9 | –
Cn1c(Nc2nc3ccc(Cl)cc3s2)nc2cc(C(=O)NCC(=O)N3CCNCC3)ccc21 [Example 425, 2-(6-Chloro-benzothiazol-2-ylamino)-1-methyl-1H-benzoimidazole-5-carboxylic acid (2-oxo-2-piperazin-1-yl-ethyl)-amide hydrochloride] | 20.3 | –
CN1CCN(C(=O)CNC(=O)c2ccc3c(c2)nc(Nc2nc4ccc(Cl)cc4s2)n3C)CC1 [Example 426, 2-(6-Chloro-benzothiazol-2-ylamino)-1-methyl-1H-benzoimidazole-5-carboxylic acid [2-(4-methyl-piperazin-1-yl)-2-oxo-ethyl]-amide] | 25.1 | –
CN1CCN(C(=O)CNC(=O)c2ccc3c(c2)nc(Nc2nc4ccc(C(F)(F)F)cc4s2)n3C)CC1 [Example 427, 1-Methyl-2-(6-trifluoromethyl-benzothiazol-2-ylamino)-1H-benzoimidazole-5-carboxylic acid [2-(4-methyl-piperazin-1-yl)-2-oxo-ethyl]-amide] | – | 17
COCCn1c(Nc2nc3ccc(Cl)cc3s2)nc2cc(C(=O)NCC(=O)N3CCN(C)CC3)ccc21 [Example 428, 2-(6-Chloro-benzothiazol-2-ylamino)-1-(2-methoxy-ethyl)-1H-benzoimidazole-5-carboxylic acid [2-(4-methyl-piperazin-1-yl)-2-oxo-ethyl]-amide] | 24.4 | –
Cn1c(Nc2nc3ccc(Cl)cc3s2)nc2cc(C(=O)NCC(=O)N3CCN(S(C)(=O)=O)CC3)ccc21 [Example 429, 2-(6-Chloro-benzothiazol-2-ylamino)-1-methyl-1H-benzoimidazole-5-carboxylic acid [2-(4-methanesulfonyl-piperazin-1-yl)-2-oxo-ethyl]-amide] | 21.4 | –
CN(C)S(=O)(=O)N1CCN(C(=O)CNC(=O)c2ccc3c(c2)nc(Nc2nc4ccc(Cl)cc4s2)n3C)CC1 [Example 430, 2-(6-Chloro-benzothiazol-2-ylamino)-1-methyl-1H-benzoimidazole-5-carboxylic acid [2-(4-dimethylsulfamoyl-piperazin-1-yl)-2-oxoethyl]-amide] | 22.7 | –
Cn1c(Nc2nc3ccc(OC(F)(F)F)cc3s2)nc2cc(C(=O)NCC(=O)N3CCCC(O)C3)ccc21 (stereo not drawn) [Example 431, 1-Methyl-2-(6-trifluoromethoxy-benzothiazol-2-ylamino)-1H-benzoimidazole-5-carboxylic acid [2-(3-hydroxy-piperidin-1-yl)-2-oxo-ethyl]-amide] | 49.4 | –
Cn1c(Nc2nc3ccc(C(F)(F)F)cc3s2)nc2cc(C(=O)NCC(=O)N3CCC[C@@H](O)C3)ccc21 [Example 432, 1-Methyl-2-(6-trifluoromethyl-benzothiazol-2-ylamino)-1H-benzoimidazole-5-carboxylic acid [2-((R)-3-hydroxy-piperidin-1-yl)-2-oxo-ethyl]-amide] | – | 27.3
Cn1c(Nc2nc3ccc(Cl)cc3s2)nc2cc(C(=O)NCC(=O)N3CCC[C@H](O)C3)ccc21 [Example 433, 2-(6-Chloro-benzothiazol-2-ylamino)-1-methyl-1H-benzoimidazole-5-carboxylic acid [2-((S)-3-hydroxy-piperidin-1-yl)-2-oxo-ethyl]-amide] | – | 29
Cn1c(Nc2nc3ccc(C(F)(F)F)cc3s2)nc2cc(C(=O)NCC(=O)N3CCC[C@H](O)C3)ccc21 [Example 434, 1-Methyl-2-(6-trifluoromethyl-benzothiazol-2-ylamino)-1H-benzoimidazole-5-carboxylic acid [2-((S)-3-hydroxy-piperidin-1-yl)-2-oxo-ethyl]-amide] | – | 34.6
Cn1c(Nc2nc3ccc(OC(F)(F)F)cc3s2)nc2cc(C(=O)NCC(=O)N3CCC(O)CC3)ccc21 [Example 435, 1-Methyl-2-(6-trifluoromethoxy-benzothiazol-2-ylamino)-1H-benzoimidazole-5-carboxylic acid [2-(4-hydroxy-piperidin-1-yl)-2-oxo-ethyl]-amide] | 30.2 | –
Cn1c(Nc2nc3ccc(Cl)cc3s2)nc2cc(C(=O)NCC(=O)N3CCC(O)CC3)ccc21 [Example 436, 2-(6-Chloro-benzothiazol-2-ylamino)-1-methyl-1H-benzoimidazole-5-carboxylic acid [2-(4-hydroxy-piperidin-1-yl)-2-oxo-ethyl]-amide] | 29.3 | –
Cn1c(Nc2nc3ccc(C(F)(F)F)cc3s2)nc2cc(C(=O)NCC(=O)N3CCC(O)CC3)ccc21 [Example 437, 1-Methyl-2-(6-trifluoromethyl-benzothiazol-2-ylamino)-1H-benzoimidazole-5-carboxylic acid [2-(4-hydroxy-piperidin-1-yl)-2-oxo-ethyl]-amide] | – | 47.1
COCCn1c(Nc2nc3ccc(Cl)cc3s2)nc2cc(C(=O)NCC(=O)N3CCC(O)CC3)ccc21 [Example 438, 2-(6-Chloro-benzothiazol-2-ylamino)-1-(2-methoxy-ethyl)-1H-benzoimidazole-5-carboxylic acid [2-(4-hydroxy-piperidin-1-yl)-2-oxo-ethyl]-amide] | 25.9 | –
Cn1c(Nc2nc3ccc(OC(F)(F)F)cc3s2)nc2cc(C(=O)NCC(=O)N3CCCCC3CO)ccc21 (stereo not drawn) [Example 439, 1-Methyl-2-(6-trifluoromethoxy-benzothiazol-2-ylamino)-1H-benzoimidazole-5-carboxylic acid [2-(2-hydroxymethyl-piperidin-1-yl)-2-oxo-ethyl]-amide] | 84.2 | –
Cn1c(Nc2nc3ccc(OC(F)(F)F)cc3s2)nc2cc(C(=O)NCC(=O)N3CCCC(CO)C3)ccc21 (stereo not drawn) [Example 440, 1-Methyl-2-(6-trifluoromethoxy-benzothiazol-2-ylamino)-1H-benzoimidazole-5-carboxylic acid [2-(3-hydroxymethyl-piperidin-1-yl)-2-oxo-ethyl]-amide] | 28.2 | –
Cn1c(Nc2nc3ccc(OC(F)(F)F)cc3s2)nc2cc(C(=O)NCC(=O)N3CCC(CO)CC3)ccc21 [Example 441, 1-Methyl-2-(6-trifluoromethoxy-benzothiazol-2-ylamino)-1H-benzoimidazole-5-carboxylic acid [2-(4-hydroxymethyl-piperidin-1-yl)-2-oxo-ethyl]-amide] | 73.6 | –
Cn1c(Nc2nc3ccc(Cl)cc3s2)nc2cc(C(=O)NCC(=O)N3CCC(CO)CC3)ccc21 [Example 442, 2-(6-Chloro-benzothiazol-2-ylamino)-1-methyl-1H-benzoimidazole-5-carboxylic acid [2-(4-hydroxymethyl-piperidin-1-yl)-2-oxo-ethyl]-amide] | 34.9 | –
COCCn1c(Nc2nc3ccc(Cl)cc3s2)nc2cc(C(=O)NCC(=O)N3CCC(CO)CC3)ccc21 [Example 443, 2-(6-Chloro-benzothiazol-2-ylamino)-1-(2-methoxy-ethyl)-1H-benzoimidazole-5-carboxylic acid [2-(4-hydroxymethyl-piperidin-1-yl)-2-oxo-ethyl]-amide] | 39.8 | –
CO[C@H]1CCCN(C(=O)CNC(=O)c2ccc3c(c2)nc(Nc2nc4ccc(Cl)cc4s2)n3C)C1 [Example 444, 2-(6-Chloro-benzothiazol-2-ylamino)-1-methyl-1H-benzoimidazole-5-carboxylic acid [2-((S)-3-methoxy-piperidin-1-yl)-2-oxo-ethyl]-amide] | – | 32
CO[C@H]1CCCN(C(=O)CNC(=O)c2ccc3c(c2)nc(Nc2nc4ccc(C(F)(F)F)cc4s2)n3C)C1 [Example 445, 1-Methyl-2-(6-trifluoromethyl-benzothiazol-2-ylamino)-1H-benzoimidazole-5-carboxylic acid [2-((S)-3-methoxy-piperidin-1-yl)-2-oxo-ethyl]-amide] | – | 36.4
CO[C@@H]1CCCN(C(=O)CNC(=O)c2ccc3c(c2)nc(Nc2nc4ccc(C(F)(F)F)cc4s2)n3C)C1 [Example 446, 1-Methyl-2-(6-trifluoromethyl-benzothiazol-2-ylamino)-1H-benzoimidazole-5-carboxylic acid [2-((R)-3-methoxy-piperidin-1-yl)-2-oxo-ethyl]-amide] | – | 31.3
COCC1CCN(C(=O)CNC(=O)c2ccc3c(c2)nc(Nc2nc4ccc(OC(F)(F)F)cc4s2)n3C)CC1 [Example 447, 1-Methyl-2-(6-trifluoromethoxy-benzothiazol-2-ylamino)-1H-benzoimidazole-5-carboxylic acid [2-(4-methoxymethyl-piperidin-1-yl)-2-oxo-ethyl]-amide] | 58.4 | –
Cn1c(Nc2nc3ccc(OC(F)(F)F)cc3s2)nc2cc(C(=O)NCC(=O)N3CCC(CF)CC3)ccc21 [Example 448, 1-Methyl-2-(6-trifluoromethoxy-benzothiazol-2-ylamino)-1H-benzoimidazole-5-carboxylic acid [2-(4-fluoromethyl-piperidin-1-yl)-2-oxo-ethyl]-amide] | 36.7 | –
Cn1c(Nc2nc3ccc(OC(F)(F)F)cc3s2)nc2cc(C(=O)NCC(=O)N3CCC(C(F)(F)F)CC3)ccc21 [Example 449, 1-Methyl-2-(6-trifluoromethoxy-benzothiazol-2-ylamino)-1H-benzoimidazole-5-carboxylic acid [2-oxo-2-(4-trifluoromethyl-piperidin-1-yl)-ethyl]-amide] | 23 | –
Cn1c(Nc2nc3ccc(OC(F)(F)F)cc3s2)nc2cc(C(=O)NCC(=O)N3CCC(C#N)CC3)ccc21 [Example 450, 1-Methyl-2-(6-trifluoromethoxy-benzothiazol-2-ylamino)-1H-benzoimidazole-5-carboxylic acid [2-(4-cyano-piperidin-1-yl)-2-oxo-ethyl]-amide] | – | 51
